Measured values taken from US7262197B2, “Phospholipase C inhibitors for use in treating inflammatory disorders” (Janssen Pharmaceutica, N.V, priority 2003, dated 2007).

Target: T1, human PLC-β2 (Homo sapiens, UniProt Q00722)
T1 construct: made in house; host or cells: Sf9 cells (Spodoptera frugiperda), recombinant baculovirus
Assay: PLC assay using FlashPlates (immobilized [3H]PIP2 substrate, 96-well)
Type: biochemical
Details: for IC50: hydrolysis of immobilized [3H]PIP2, purified recombinant human PLC-β2 or cytosolic human PLC-β2; for inhibition at up to 10 µM: printed in brackets beside IC50 >10 μM, test concentration not stated
Description: The hydrolysis of phosphatidylinositol-4,5-bisphosphate (PIP2) by a specific phospholipase C-β2 (PLC-β2) produces two intracellular messengers, diacylglycerol (DAG) and inositol 1,4,5-trisphosphate (IP3), which mediate the activation of protein kinase C and intracellular Ca^2+ release. A conventional organic solvent extraction method is widely used for PLC assays to isolate IP3 from the substrate PIP2. The conventional PLC-β2 assay, however is terminated by addition of acidified organic solvents and subsequent extraction and phase separation. […] Accordingly, a preferred method to test the compounds of the present invention, was developed utilizing a 96-well plate assay for PLC-β2 using immobilized radiolabeled substrate to quantitatively measure the reduction in the substrate level without a need for organic solvent extraction. The automated PLC-β2 assay described herein provides a convenient method for quantitative measurement of phospholipase C activities in a high throughput fashion.
Ninety-six well Phospholipid FlashPlates were coated with 0.2 mL of 50 mM Tris/HCl (pH 7.4), 0.01% Ac-BSA and 50,000 cpm of ^[3H]PIP2 (phosphatidylinositol-4,5-bisphosphate) at 4° C. for 72 h. The wells were aspirated and washed twice with PBS. The reactions were conducted directly in the wells in PLC reaction buffer containing 50 mM Tris/HCl (pH 7.2), 2.75 mM EDTA (pH 7.3), 80 mM KCl, 10 mM LiCl, 0.04% DOC and 2 mM CaCl2 in the absence or presence of the purified recombinant human PLC-β2 (prepared as described hereafter) or cytosolic human PLC-β2 from […]. Reduction of radioactivity was monitored by a Packard TopCount instrument (Packard Instrument Company, Conn., USA).
Suspension cultures of Sf9 cells were maintained in a spinner flask at 27° C. and stirred at 90 rpm. The cells were grown in Grace's media supplemented with 10% (v/v) fetal bovine serum, 3.3 g/l yeastolate, 3.3 g/l lactalbumin hydrosylate, glutamine (6.4 mM final), 50 µg/ml gentamicin, and 50 μg/ml kanamycin. Suspension of Sf9 cells (1.0×10^6 cells/ml) were infected with 5 pfu/cell of recombinant baculovirus encoding PLC-β2 and incubated at 27° C. for 72 h. The cells were collected by centrifugation (500×g, 7 min, 4° C.) and disrupted by hypotonic lysis buffer containing 20 mM Tris/HCl, pH 7.4, 5 mM MgCl2, 2 mM EGTA, 200 βM PMSF, 200 βM benzamidine and 1 βM pepstatin A. The lysate was sonicated on ice and the nuclei and unbroken cells removed by centrifugation (500×g, 5 min, 4° C.). The supernatant was recovered and clarified by centrifugation (34,000 rpm, 60 min, 4° C.). The supernatant was used as a crude cytosolic fraction (Paterson, A., Boyer, J. L., Watts, V. J., Morris, A. J., Price, E. M., Harden, T. K. (1995) Concentration of enzyme-dependent activation of PLC β1 and PLC β2 by Gα11 and βγ subunits. Cellular Signalling 7, 709-720).
Crude cytosol prepared from Sf9 cells expressing PLC-β2 was purified initially by chromatography on a 10 ml column of Q-Sepharose FF, equilibrated in buffer A (25 mM HEPES, pH 7.2, 2 mM DTT, 2 mM EDTA, 2 mM EGTA, 200 μM PMSF, 200 μM benzamidine, 1 μM pepstatin A containing 10 mM NaCl). The column was washed with 20 ml of equilibration buffer and eluted with a 200-ml gradient of 110-410 mM NaCl in buffer A. The fractions containing PLC activity were pooled and diluted with buffer A. The diluted enzyme was applied to a 4 ml column of heparin-SepharoseCL-6B equilibrated in buffer A and the column washed with 70 ml of buffer A. The column was eluted with 80 ml of gradient of 0-1.0 M NaCl in buffer A, the column eluate collected in 3 ml fractions. […]

T1 sequence (Q00722 whole entry): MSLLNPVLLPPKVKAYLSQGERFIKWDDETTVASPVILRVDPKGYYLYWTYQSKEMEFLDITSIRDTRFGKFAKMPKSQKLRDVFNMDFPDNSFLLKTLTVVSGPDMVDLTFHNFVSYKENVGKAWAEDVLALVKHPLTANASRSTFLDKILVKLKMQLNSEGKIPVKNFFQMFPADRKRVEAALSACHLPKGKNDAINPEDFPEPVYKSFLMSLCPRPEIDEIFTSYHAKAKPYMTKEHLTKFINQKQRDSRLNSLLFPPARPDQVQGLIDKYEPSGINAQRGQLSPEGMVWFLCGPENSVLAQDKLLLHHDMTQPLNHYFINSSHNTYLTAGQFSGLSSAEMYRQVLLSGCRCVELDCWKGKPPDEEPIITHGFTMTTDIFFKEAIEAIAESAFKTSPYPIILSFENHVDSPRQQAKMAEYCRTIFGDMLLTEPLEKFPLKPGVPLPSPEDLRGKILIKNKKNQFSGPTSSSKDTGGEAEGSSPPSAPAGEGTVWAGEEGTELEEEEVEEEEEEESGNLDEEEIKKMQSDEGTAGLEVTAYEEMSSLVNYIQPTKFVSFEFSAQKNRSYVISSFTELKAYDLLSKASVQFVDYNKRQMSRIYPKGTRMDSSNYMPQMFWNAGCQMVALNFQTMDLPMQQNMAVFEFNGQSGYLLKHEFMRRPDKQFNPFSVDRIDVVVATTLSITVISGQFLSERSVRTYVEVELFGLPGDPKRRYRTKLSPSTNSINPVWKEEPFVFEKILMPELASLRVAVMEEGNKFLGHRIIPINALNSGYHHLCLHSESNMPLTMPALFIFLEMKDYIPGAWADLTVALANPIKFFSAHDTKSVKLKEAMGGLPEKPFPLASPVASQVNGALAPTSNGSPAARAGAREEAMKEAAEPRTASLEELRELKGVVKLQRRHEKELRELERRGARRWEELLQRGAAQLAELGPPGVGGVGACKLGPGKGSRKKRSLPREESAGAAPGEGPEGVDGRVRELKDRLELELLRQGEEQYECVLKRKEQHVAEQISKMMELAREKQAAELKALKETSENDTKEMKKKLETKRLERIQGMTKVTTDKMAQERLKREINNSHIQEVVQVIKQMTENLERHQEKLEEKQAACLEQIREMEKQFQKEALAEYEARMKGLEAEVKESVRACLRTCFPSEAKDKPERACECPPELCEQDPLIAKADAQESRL

| IC50 | inhibition at up to 10 µM | Structure (SMILES) |
| --- | --- | --- |
| 12.6 µM |  | Cc1ccc(C(=O)Nc2cc(C(=O)N3CCNCC3)ccc2N2CCN(C(c3ccccc3)c3ccccc3)CC2)cc1 [Cpd 1, N-[2-[4-(diphenylmethyl)-1-piperazinyl]-5-(1-piperazinylcarbonyl)phenyl]-4-methyl-benzamide] |
| 17.4 µM |  | Cc1oc(-c2ccc(Cl)cc2)cc1C(=O)Nc1cc(C(=O)N2CCNCC2)ccc1N1CCN(C(c2ccccc2)c2ccccc2)CC1 [Cpd 2, 5-(4-chlorophenyl)-N-[2-[4-(diphenylmethyl)-1-piperazinyl]-5-(1-piperazinylcarbonyl)phenyl]-2-methyl-3-furancarboxamide] |
| 21.6 µM |  | O=C(Nc1cc(C(=O)N2CCNCC2)ccc1N1CCN(C(c2ccccc2)c2ccccc2)CC1)c1ccco1 [Cpd 3, N-[2-[4-(diphenylmethyl)-1-piperazinyl]-5-(1-piperazinylcarbonyl)phenyl]-2-furancarboxamide] |
| > 25 µM |  | CCC(=O)Nc1cc(C(=O)N2CCNCC2)ccc1N1CCN(C(c2ccccc2)c2ccccc2)CC1 [Cpd 4, N-[2-[4-(diphenylmethyl)-1-piperazinyl]-5-(1-piperazinylcarbonyl)phenyl]-propanamide] |
| 10.8 µM |  | Cc1ccc(S(=O)(=O)Nc2cc(C(=O)N3CCNCC3)ccc2N2CCN(C(c3ccccc3)c3ccccc3)CC2)cc1 [Cpd 5, N-[2-[4-(diphenylmethyl)-1-piperazinyl]-5-(1-piperazinylcarbonyl)phenyl]-4-methyl-benzenesulfonamide] |
| 8.7 µM |  | O=C(c1ccc(N2CCN(C(c3ccccc3)c3ccccc3)CC2)c(NS(=O)(=O)c2ccc(Cl)cc2)c1)N1CCNCC1 [Cpd 6, 4-chloro-N-[2-[4-(diphenylmethyl)-1-piperazinyl]-5-(1-piperazinylcarbonyl)phenyl]-benzenesulfonamide] |
| > 25 µM |  | CCCCS(=O)(=O)Nc1cc(C(=O)N2CCNCC2)ccc1N1CCN(C(c2ccccc2)c2ccccc2)CC1 [Cpd 7, N-[2-[4-(diphenylmethyl)-1-piperazinyl]-5-(1-piperazinylcarbonyl)phenyl]-1-butanesulfonamide] |
| 9.8 µM |  | CS(=O)(=O)Nc1cc(C(=O)N2CCNCC2)ccc1N1CCN(C(c2ccccc2)c2ccccc2)CC1 [Cpd 8, N-[2-[4-(diphenylmethyl)-1-piperazinyl]-5-(1-piperazinylcarbonyl)phenyl]-methanesulfonamide] |
| > 10 µM | 60% | CS(=O)(=O)c1ccc(N2CCN(C(c3ccccc3)c3ccccc3)CC2)c(NC(=O)Nc2ccccc2)c1 [Cpd 9, N-[2-[4-(diphenylmethyl)-1-piperazinyl]-5-(methylsulfonyl)phenyl]-N′-phenyl-urea] |
| > 10 µM | 47% | O=C(Nc1ccccc1)Nc1cc(CO)ccc1N1CCN(C(c2ccc(F)cc2)c2ccc(F)cc2)CC1 [Cpd 10, N-[2-[4-[bis(4-fluorophenyl)methyl]-1-piperazinyl]-5-(hydroxymethyl)phenyl]-N′-phenyl-urea] |
| > 10 µM |  | COC(=O)c1ccc(N2CCN(C(c3ccc(F)cc3)c3ccc(F)cc3)CC2)c(NC(=O)Nc2ccccc2)c1 [Cpd 11, 4-[4-[bis(4-fluorophenyl)methyl]-1-piperazinyl]-3-[[(phenylamino)carbonyl]amino]-benzoic acid methyl ester] |
